Where two headings read alike, the source gives them in different places.
Assays:
[1] = system: Bovine retinal capillary endothelial (BRCE) cells; test: Cell survival, 1-week cell proliferation assay in BRCE cells; type: cell-based; details: for Cellular Survival (%): BRCE
Method: (§1) Bovine retinal capillary endothelial (BRCE) cells (from Patricia A. D'Amore, Schepens Eye Research Institute, Boston, Mass.) and Human retinal pigment epithelial (RPE) cells (from Anthony P. Adamis, Massachusetts Eye & Ear Infirmary, Boston, Mass.) were grown at 37° C., 5% CO2 in Dulbecco's modified Eagle's medium (DMEM; Sigma, St. Louis, Mo.), 5% heat-inactivated fetal bovine serum (FBS, Gibco, Grand Island, N.Y.), supplemented with L-glutamine, penicillin, and streptomycin (Gibco Grand Island, N.Y.). Lutetium Texaphyrin (Lu-Tex) was obtained from Alcon Laboratories, Inc. (Fort Worth, Tex.) as a stock solution of 2 mg/ml, stable in the dark at 4° C., and used in accordance with the manufacturer's guidelines.
(§2) Cell survival was measured using a cell proliferation assay. Briefly, BRCE or RPE cells were plated at a density of 10^5 cells in DMEM with 5% FBS and incubated at 37° C. in 5% CO2. After eighteen hours, and if desired, recombinant human angiostatin (Calbiochem, La Jolla, Calif.) was added at a concentration of 500 ng/ml. Eighteen hours later, the medium was removed and replaced by 3 μg/ml Lu-Tex in complete media. Thirty minutes later, the cultures were exposed to timed irradiation using an argon/dye Photocoagulator at 732 nm and laser delivery system (model 920, Coherent Inc., Palo Alto, Calif.). Irradiance was delivered at a rate of […] to give a total dose of 5 to 20 J/cm^2, and irradiation time ranged from 7 to 28 minutes. After irradiation, the medium was removed and replaced with complete medium. Cultures were returned to the incubator for 7 days, after which cells were dispersed in trypsin, counted in a masked fashion, and the surviving fraction determined. Cultures were photographed at various times following Lu-Tex/PDT using a 16×-0.32 numeric aperture on a phase contrast inverted microscope (Diaphot, Nikon, Melville, N.Y.).
In order to assess the effect of combining angiostatin to Lu-Tex/PDT on BRCE cell survival, cells were pre-treated for 18 hours with 500 ng/ml angiostatin after which they were treated with Lu-Tex/PDT at various fluences. Cellular survival was measured by the 1-week cellular proliferation assay.

[2] = system: Human retinal pigment epithelial (RPE) cells; test: Cell survival, 1-week cell proliferation assay in RPE cells; type: cell-based; details: for Cellular Survival (%): RPE
Method: as §1, §2

[3] = system: RPE cells; test: Cellular morphology following PDT, RPE cells; type: cell-based, Human; details: after treatment
Method: (§3) Experiments were performed to establish how PDT effects the cellular morphology of BRCE and RPE cells. The cells were treated and exposed to PDT either alone or in combination with angiostatin as described in Example 1. Although cells appeared severely damaged immediately after PDT, subsequent recovery occurred in certain circumstances. One week after PDT, some cells disappeared while those that remained regained their spindle shape and their ability to attach.

[4] = system: Caspase 3-like (DEVD-ase) protease; test: Caspase 3-like (DEVD-ase) activation, Ac-DEVD-AFC cleavage in BRCE lysates; type: cell-based, Bovine
Method: (§4) In order to investigate the role of apoptosis in Lu-Tex/PDT mediated cell death in BRCE and RPE, the activation of Caspase 3-like (DEVD-ase) protease, a hallmark of apoptosis (Nicholson (1997) TIBS 22: 299–306), was monitored. The kinetics of activation were measured spectrofluorometrically by assaying the hydrolysis of a substrate that can be cleaved only by the caspase 3-like protease family members.
Various times after Lu-Tex/PDT, 10^6 cells were collected by centrifugation, and the washed cell pellet resuspended in 500 μl of ice-cold lysis buffer (pH 7.5) containing 10 mM Tris, 130 mM NaCl, 1% Triton X-100, 10 mM NaF, 10 mM NaPi, 10 mM NaPPi, 16 μg/ml benzamidine, 10 μg/ml phenanthroline, 10 μg/ml aprotinin, 10 μg/ml leupeptin, 10 μg/ml pepstatin and 4 mM 4(2-aminoethyl)-benzene-sulfanyl fluoride hydrochloride (AEBSF). Cellular lysates were stored in aliquots at −84° C. for later protease activity assay or Western blot analysis. A protein assay (Coomassie Plus protein assay (Pierce, Rockford, Ill.) with a bovine serum albumin (BSA) standard was used to assay protein concentration in cell extract.
(§5) In order to measure protease activity, aliquots containing 50 1 μg of cellular protein were incubated with 14 μM (final concentration N-acetyl (Asp-Glu-Val-Asp (SEQ. ID NO: 3)-(7-amino-4-trifluoromethly coumarin) (Ac-DEVD-AFC); (Pharmingen San Diego, Calif.) in 1 ml protease assay buffer pH 7.2 (20 mM piperazine-N-N^1-bis (2-ethanesulfuric acid) (PIPES), 100 mM NaCl, 10 mM dithiothreitol (DTT), 1 mM EDTA, 0.1%(w/v) 3-[(3-Cholamidopropyl) dimethyl ammonio]-1-propane sulfonate (CHAPS), and 10% sucrose) at 37° C. for 1 hour. Fluorescence was measured using a Perkin-Elmer MPF-44A spectrofluorometer (λexcitation, 400 nm; λemission 505 nm). Cellular protein served as the blank.
In order to examine the effect of combining angiostatin and Lu-Tex/PDT on DEVD-ase activation in BRCE cells, cells were treated with angiostatin alone, Lu-Tex/PDT alone and angiostatin/Lu-Tex/PDT, following which caspase 3-like activity was assayed as described above. Fluences of 20 and 40 J/cm^2 were used, corresponding to LD100 of combination angiostatin/Lu-Tex/PDT and Lu-Tex/PDT alone respectively. […] As in the case of BRCE cells treated with Lu-Tex/PDT alone, the rate of entry into apoptosis of BRCE cells treated with combination of angiostatin/Lu-Tex/PDT was time-dependent.

[5] = system: Caspase 3-like (DEVD-ase) protease; test: Caspase 3-like (DEVD-ase) activation, Ac-DEVD-AFC cleavage in RPE lysates; type: cell-based, Human; details: RPE, 10, 20 and 40 J/cm^2
Method: as §4, with “members. […]” for “members.”
as §5, with “Cellular protein served as the blank.” left out

[6] = system: Bax; test: Western blot of Bcl-2 family members in BRCE cells after Lu-Tex/PDT; type: cell-based, Bovine; details: after Lu-Tex/PDT at LD50
Method: (§6) In order to evaluate the expression of Bcl-2 family members in BRCE and RPE cells after Lu-Tex/PDT, BRCE and RPE cells were subjected to Lu-Tex/PDT and the resultant cellular lysates subjected to Western blot analysis for detection of the anti-apoptotic Bcl-2, Bcl-xL markers, and the pro-apoptotic Bax and Bak markers.
(§7) Cell lysates were produced as described in Example 3. Sodium dodecyl sulfate-polyacrylamide gel electrophoresis of proteins was performed with 12% SDS-polyacrylamide gels. All samples were boiled in denaturing sample buffer, and equal amounts of proteins were loaded per lane. Proteins were separated at room temperature under reducing conditions at 120 V. Western blot transfer of separated proteins was performed at room temperature, using polyvinylidene fluoride membranes at 50 mA for 1 hr. To verify equal protein loading, blots were stained with 0.1% ponceau red (Sigma) diluted in 5% acetic acid. Afterwards, blots were blocked for 1 hr in Tris buffered saline (TBS; 10 mM Tris-HCl, pH 7.5, and 150 mM NaCl) containing 5% non-fat dried milk. Next, the membranes were probed with an appropriate dilution (1:250 to 1:1000) of primary antibody in TBS containing 2.5% non-fat dried milk for one and a half hours. Mouse polyclonal antibodies against Bcl-2, Bcl-xL, Bax and Bak were purchased from Pharmingen. After incubation with primary antibody, the blots were washed for 30 minutes with frequent changes of TBS, blocked in 1% non-fat dried milk in TBS for 30 minutes, followed by incubation in a peroxidase-coupled secondary antibody for 1 hour in TBS containing 1% non-fat dried milk. The blots were washed for 1 hour with frequent changes of TBST (TBS, 0.1% Tween). Immunoblot analysis was performed using enhanced chemiluminescence plus Western blotting detection reagents (Amersham, Pharmacia Biotec Piscataway, N.J.) followed by exposure to x-ray film (ML Eastman Kodak, Rochester, N.Y.).

[7] = system: Bcl-2; test: as above; type: cell-based, Bovine; details: after Lu-Tex/PDT at LD50
Method: as §6, §7

[8] = system: Bak; test: Western blot of Bcl-2 family members in RPE cells after Lu-Tex/PDT; type: cell-based, Human; details: up to 4 hours post-PDT, then decline
Method: as §6
(§8) Cell lysates were produced as described in Example 3. Sodium dodecyl sulfate-polyacrylamide gel electrophoresis of proteins was performed with 12% SDS-polyacrylamide gels. All samples were boiled in denaturing sample buffer, and equal amounts of proteins were loaded per lane. Proteins were separated at room temperature under reducing conditions at 120 V. Western blot transfer of separated proteins was performed at room temperature, using polyvinylidene fluoride membranes at 50 mA for 1 hr. To verify equal protein loading, blots were stained with 0.1% ponceau red (Sigma) diluted in 5% acetic acid. Afterwards, blots were blocked for 1 hr in Tris buffered saline (TBS; 10 mM Tris-HCl, pH 7.5, and 150 mM NaCl) containing 5% non-fat dried milk. Next, the membranes were probed with an appropriate dilution (1:250 to 1:1000) of primary antibody in TBS containing 2.5% non-fat dried milk for one and a half hours. Mouse polyclonal antibodies against Bcl-2, Bcl-xL, Bax and Bak were purchased from Pharmingen. […]

[9] = system: Bcl-xL; test: as above; type: cell-based, Human; details: up to 4 hours post-PDT, then plateau
Method: as §6, §8

[10] = system: Human retinal pigment epithelial (RPE) cells; details: cited from earlier work
[11] = typical; cited from earlier work
[12] = stock solution of 2 mg/ml, in the dark at 4° C.; cited from earlier work
[13] = system: BRCE cells; test: Cellular morphology following PDT, BRCE cells; type: cell-based, Bovine; details: one week after treatment
Method: as §3

[14] = fluence 5 J/cm^2, 3 μg/ml Lu-Tex, angiostatin 500 ng/ml where used, 7 days, mean ± SD
[15] = fluence 10 J/cm^2, 3 μg/ml Lu-Tex, angiostatin 500 ng/ml where used, 7 days, mean ± SD
[16] = fluence 20 J/cm^2, 3 μg/ml Lu-Tex, angiostatin 500 ng/ml where used, 7 days, mean ± SD
[17] = angiostatin alone 500 ng/ml, no PDT

Compound: CC(=O)[O-].CC(=O)[O-].CCc1c(CC)c2cc3nc(cnc4cc(OCCOCCOCCOC)c(OCCOCCOCCOC)cc4ncc4nc(cc1[n-]2)C(CCCO)=C4C)C(C)=C3CCCO.O.[Lu+3] [Lu-Tex/PDT, Lutetium Texaphyrin]
- Cellular Survival (%) [1, 14]: 79.13 ± 4.05 (5J/cm^2) %
- Cellular Survival (%) [1, 15]: 53.17 ± 0.32 (10J/cm^2) %
- Cellular Survival (%) [1, 16]: 33.34 ± 2.26 (20J/cm^2) %
- dark toxicity ([1]; at the concentration of Lu-Tex used (3 μg/ml), no light): no dark toxicity was observed
- lethality of BRCE cells ([1]; fluence 40 J/cm^2): 100%
- lethal dose (LD100) for BRCE cells ([1]; fluence of light): 40 J/cm^2
- Cellular Survival (%) [2, 14]: 94.55 ± 1.60 (5J/cm^2) %
- Cellular Survival (%) [2, 15]: 59.59 ± 3.56 (10J/cm^2) %
- Cellular Survival (%) [2, 16]: 53.47 ± 3.18 (20J/cm^2) %
- improvement of RPE cell survival post-PDT ([2]; light dose 20 J/cm^2 (instead of 40 J/cm^2)): 20%
- cellular morphology / fate of RPE cells [3]: appeared unchanged
- increase of caspase 3-like activation in BRCE cells as compared to RPE cells ([4]; 10 J/cm^2 and 20 J/cm^2): about 50%
- caspase 3-like activation levels in BRCE relative to RPE cells ([4]; 40 J/cm^2): 5 fold
- caspase 3-like (DEVD-ase) activity, Lu-Tex/PDT (40 J/cm^2) compared with angiostatin/Lu-Tex/PDT (20 J/cm^2) ([4]; BRCE): increased levels
- earliest elevation of caspase 3-like activity post-Lu-Tex/PDT ([4]; BRCE, 10, 20 and 40 J/cm^2): 10 min
- time of peak caspase 3-like activity post-Lu-Tex/PDT ([4]; BRCE, 10, 20 and 40 J/cm^2): 40 min
- earliest elevation of caspase 3-like activity post-Lu-Tex/PDT [5]: 10 min
- time of peak caspase 3-like activity post-Lu-Tex/PDT [5]: 40 min
- Bax protein level [6]: upregulation
- cellular ratio of Bax to Bcl-2 protein [6]: increase
- Bcl-2 protein level [7]: downregulation
- Bak protein level [8]: upregulation
- Bcl-xL protein level [9]: upregulation
- RPE cell survival ([10]; fluence 20 J/cm^2, previous studies): about 43%
- RPE cell survival ([10]; fluence 40 J/cm^2, previous studies): ~21%
- persistence in the target neovasculature [11]: about twenty
- time until present within the target neovasculature post administration [11]: one
- stability of stock solution [12]: stable

Compound: C=Cc1c(C)c2cc3nc(c(CC(=O)N[C@@H](CC(=O)O)C(=O)O)c4[nH]c(cc5nc(cc1[nH]2)C(C)=C5CC)c(C)c4C(=O)O)[C@@H](CCC(=O)O)[C@@H]3C [N-aspartyl chlorin e6]
- persistence in the target neovasculature [11]: about twenty
- time until present within the target neovasculature post administration [11]: one

Compound: O=C([O-])c1c(Cl)c(Cl)c(Cl)c(Cl)c1-c1c2cc(I)c(=O)c(I)c-2oc2c(I)c([O-])c(I)cc12.[Na+].[Na+] [rose bengal]
- persistence in the target neovasculature [11]: about ten
- time until present within the target neovasculature post administration [11]: one

Compound: Angiostatin
- Cellular Survival (%) [1, 17]: 87.39%
- killing of BRCE cells ([1]; angiostatin alone, 500 ng/ml): 12.61%
- Cellular Survival (%) [2, 17]: 99.09%
- cytotoxicity on human RPE cells ([2]; human angiostatin alone): no cytotoxicity was observed
- cellular morphology / fate of BRCE cells [13]: continued to proliferate and reached confluence
- cellular morphology / fate of RPE cells [3]: continued to proliferate and reached confluence

Compound: benzoporphyrin derivative
- persistence in the target neovasculature [11]: about fifty
- time until present within the target neovasculature post administration [11]: one

From patent publication US7125542B2, “Methods and compositions for treating conditions of the eye” (Massachusetts Eye and Ear Infirmary, priority 2000, dated 2006)
